This note sets out measurements from the Deep4Chem optical property database.

This data set is described as follows: photoluminescence quantum yield (fraction); solvent given as SMILES.
[1] abbreviates: in O=P(c1ccccc1)(c1ccccc1)c1ccccc1Oc1ccccc1P(=O)(c1ccccc1)c1ccccc1.

As for `Nc1cc(N)cc(-c2nc3ccccc3s2)c1`, the photoluminescence quantum yield is, setting by setting: (in C1CCCCC1) 0.102; (in C1COCCO1) 0.06; (in CC#N) 0.05; (in CC(C)O) 0.055; (in CCOC(C)=O) 0.053; (in CCOCC) 0.061. The photoluminescence quantum yield is 0.015 (in CO) and 0.0091 (in O).
The molecule `CCCC1(CCC)c2ccccc2-c2ccc(-c3ccc4c(c3)C(CCC)(CCC)c3cc(-c5ccc6c(c5)C(CCC)(CCC)c5ccccc5-6)ccc3-4)cc21` showed a photoluminescence quantum yield (in C1CCCCC1) of 0.91.
For the setting “in ClCCl”, `CCCCN(CCCC)c1ccc(C#Cc2cc(C#Cc3ccc(N(CCCC)CCCC)cc3)c(C#Cc3cc(C(F)(F)F)cc(C(F)(F)F)c3)cc2C#Cc2cc(C(F)(F)F)cc(C(F)(F)F)c2)cc1` came in with a photoluminescence quantum yield of 0.34.
On to `CCCCC1(CCCC)c2cc(C#Cc3ccc(C=C(c4ccccc4)c4ccccc4)cc3)ccc2-c2ccc(C#Cc3ccc(C=C(c4ccccc4)c4ccccc4)cc3)cc21`, for which, under “in C1CCOC1”, the photoluminescence quantum yield turned out to be 0.048.
Where the note is “in ClC(Cl)Cl”, `CCCCCCCCC1(CCCCCCCC)c2cc(-c3ccc(C#N)cc3)ccc2-c2ccc(-c3ccc(C#N)cc3)cc21` showed a photoluminescence quantum yield of 0.95.
`O=C(c1ccc(-n2c3ccccc3c3cc(-n4c5ccccc5c5ccccc54)ccc32)cc1)c1ccc(-n2c3ccccc3c3cc(-n4c5ccccc5c5ccccc54)ccc32)cn1` returned a photoluminescence quantum yield (in Cc1ccccc1) of 0.38 and a photoluminescence quantum yield under setting [1] of 0.73.
Turning to `CCCSc1ccc2n1[B-](F)(F)[N+]1=C(SC#N)C=CC1=C2c1ccccc1`, the photoluminescence quantum yield is 0.16 (in CC#N); 0.18 (in CCCCCC); 0.2 (in CCOC(C)=O); 0.16 (in CO); 0.27 (in ClCCl).
For `c1cc2ccc3cc4cccc5ccc6cc(c1)c2c3c6c54`, the photoluminescence quantum yield (in C1CCCCC1) was 0.31; the photoluminescence quantum yield (in CC#N) worked out at 0.32; the photoluminescence quantum yield (in CO) turned out to be 0.38; the photoluminescence quantum yield (in Cc1ccccc1) came to 0.47; the photoluminescence quantum yield (in ClCCl) came to 0.24.
Turning to `CCn1c2ccccc2c2cc(-c3cc(-c4ccc5c(c4)c4ccccc4n5CC)nc(OC)n3)ccc21`, the photoluminescence quantum yield runs as follows: (in C1CCOC1) 0.48; (in CCOC(C)=O) 0.76; (in CN(C)C=O) 0.69; (in Cc1ccccc1) 0.68; (in ClCCl) 0.69.
Under “in Cc1ccccc1”, `COC(=O)/C(C#N)=c1\s/c(=c2/s/c(=C(/C#N)C(=O)OC)c3cc(-c4ccc(C)cc4)sc23)c2sc(-c3ccc(C)cc3)cc12` registered a photoluminescence quantum yield of 0.325.
The molecule `COC(=O)/C=C/C1=CC2=C(c3c(C)cc(C)cc3C)c3cccn3[B-](F)(F)[N+]2=C1` showed a photoluminescence quantum yield (in ClCCl) of 0.34.
Regarding `CC1(C)C(/C=C/C=C/C=C/C=C2/N(CCCCCC(=O)O)c3ccc(S(=O)(=O)[O-])cc3C2(C)C)=[N+](CCCCS(=O)(=O)[O-])c2ccc(S(=O)(=O)[O-])cc21`, the photoluminescence quantum yield runs as follows: (in CO) 0.55; (in O) 0.3.
With `CC1(C)c2ccccc2N(c2ccccc2)c2ccc(-c3nc(-c4ccccc4)nc(-c4ccccc4)n3)cc21`, the photoluminescence quantum yield under setting [1] amounted to 0.55.
`c1ccc(N2c3ccc4ccccc4c3-c3c4ccccc4cn[n+]3[B-]2(c2ccccc2)c2ccccc2)cc1`: the photoluminescence quantum yield (in Cc1ccccc1) worked out at 0.05.
Molecule `c1cc2c3c(cccc3c1)-c1c-2ccc2ccc3ccccc3c12` came in with a photoluminescence quantum yield (in CCCCCCC) of 0.14.
In the case of `CCCCCCC(CCCCCC)N1C(=O)c2cccc3c(-c4ccc([Si](C)(C)C)cc4)ccc(c23)C1=O`, the photoluminescence quantum yield is, setting by setting: (in CCCCCC) 0.14; (in CCCCCCCCCCCCCC) 0.18; (in CCCCCCCCCCCO) 0.85; (in CCCCO) 0.89; (in CN(C)C=O) 0.64; (in Cc1ccccc1) 0.51. Where the note is “in ClC(Cl)Cl”, this molecule registered a photoluminescence quantum yield of 0.79.
`CCCCCCn1c2ccccc2c2cc(/C=C/c3cc(=O)oc4cc(C)ccc34)ccc21` returned a photoluminescence quantum yield (in ClC(Cl)Cl) of 0.38.
In the case of `Cc1ccccc1-c1c2ccc(=[N+]3CCCC3)cc-2oc2cc(N3CCCC3)ccc12`, the photoluminescence quantum yield was found to be 0.95 (in CCO) and 1 (in ClCCl).
`CCC1(CC)c2ccccc2-c2c1c1c(c3c2C(CC)(CC)c2cc(N(c4ccccc4)c4ccccc4)ccc2-3)C(CC)(CC)c2cc(N(c3ccccc3)c3ccccc3)ccc2-1` gave a photoluminescence quantum yield (in C1CCOC1) of 0.36.
On to `CCC1=C(C)C(=O)n2c1cc1c(c(C)c(C(=O)OCC(C)C)n1CC(C)C)c2=O`, for which the photoluminescence quantum yield worked out at 0.05 (in C1CCCCC1); 0.74 (in CO); 0.84 (in CS(C)=O); 0.78 (in ClC(Cl)Cl); 0.22 (in c1ccccc1).
Regarding `CCC(CC)COC1=CC2=C3c4cc(OCC(CC)CC)c(-c5cccs5)n4[B-](F)(F)[n+]4nnn(c43)[B-](F)(F)[N+]2=C1c1cccs1`, the photoluminescence quantum yield came to 0.06 (in C1CCOC1) and 0.06 (in ClCCl).
Molecule `COc1ccc(/C=C/C2=[O+][B-](F)(F)OC(/C=C/c3ccc(OC)cc3)=C2c2ccc(OC)cc2)cc1` showed a photoluminescence quantum yield (in ClCCl) of 0.39.
As to `CCN(CC)c1ccc2cc(/C=C/C(=O)c3cc4ccc(N(CC)CC)cc4oc3=O)c(=O)oc2c1`, the photoluminescence quantum yield (in C1CCOC1) is 0.53; the photoluminescence quantum yield (in C1COCCO1) came to 0.58; the photoluminescence quantum yield (in CC#N) was found to be 0.11; the photoluminescence quantum yield (in CC(C)=O) was 0.27; the photoluminescence quantum yield (in CCO) is 0.07; the photoluminescence quantum yield (in CCOC(C)=O) amounted to 0.57. The photoluminescence quantum yield (in CN(C)C=O) turned out to be 0.01; the photoluminescence quantum yield (in CS(C)=O) was 0.06; the photoluminescence quantum yield (in Cc1ccccc1) came out at 0.68; the photoluminescence quantum yield (in ClC(Cl)Cl) was determined as 0.5; the photoluminescence quantum yield (in ClCCl) amounted to 0.59; the photoluminescence quantum yield (in O) is 0.
Under “in ClC(Cl)Cl”, `Cc1ccc(CN(Cc2ccc(C)cc2)c2nc(C#N)c(N(Cc3ccc(C)cc3)Cc3ccc(C)cc3)nc2C#N)cc1` showed a photoluminescence quantum yield of 0.69.
For the setting “in ClC(Cl)Cl”, `F[B-]1(F)OC(c2ccc(C(F)(F)F)cc2)=Cc2c3ccccc3cc[n+]21` displayed a photoluminescence quantum yield of 0.026.
Turning to `NNC(=O)c1ccc(/C=C/c2ccc(C(=O)NN)cc2)cc1`, under “in CN(C)C=O”, the photoluminescence quantum yield was 0.2.
Take `Cc1cccc(C)c1/C=C/c1nc(N2CCOCC2)c2c([n+]1[O-])CCCC2`: the photoluminescence quantum yield (in ClCCl) came out at 0.29.
With `CCN(CC)c1ccc(-c2ccc(-c3nc4ccccc4c(=O)[nH]3)s2)cc1`, the photoluminescence quantum yield was found to be 0.28 (in CC#N) and 0.71 (in Cc1ccccc1).
`[O-]c1ccccc1-c1[nH+]c2c3ccccc3c3ccccc3c2o1` had a photoluminescence quantum yield (in Cc1ccccc1) of 0.111.
As to `Cc1cccc(C2=Cc3c4ccccc4c4ccccc4[n+]3[B-](F)(F)O2)c1`, under “in ClC(Cl)Cl”, the photoluminescence quantum yield was determined as 0.188.
The molecule `CCCCCCCCC1(CCCCCCCC)c2cc(C#CC#Cc3ccc(N(c4ccccc4)c4ccccc4)cc3)ccc2-c2ccc(C=O)cc21` came in with a photoluminescence quantum yield (in C1CCOC1) of 0.9; a photoluminescence quantum yield (in C1COCCO1) of 0.76; a photoluminescence quantum yield (in CC#N) of 0.2; a photoluminescence quantum yield (in CC(C)=O) of 0.23; a photoluminescence quantum yield (in CCCCCC) of 0.5; a photoluminescence quantum yield (in CCOC(C)=O) of 0.76. Besides, the photoluminescence quantum yield (in CN(C)C=O) stood at 0.16; the photoluminescence quantum yield (in CS(C)=O) is 0.2; the photoluminescence quantum yield (in Cc1ccccc1) amounted to 0.94; the photoluminescence quantum yield (in ClC(Cl)Cl) came to 0.09; the photoluminescence quantum yield (in ClCCl) amounted to 0.7.
